Assay results taken from US8614201B2 (Janssen Pharmaceutica NV, priority 2009, dated 2013).

molecular target: Human TRPA1 (Homo sapiens, UniProt O75762); assay: Assay 1: In vitro cellular testing of TRPA1 modulation (CHO-TREx, Fluo-3 calcium fluorescence, AITC agonist); type: cell-based; set-up: expressed in transfected cells; host or cells: CHO-TREx cells (Invitrogen), vector pcDNA4/TO; conditions: CHO-TREx cells expressing human TRPA1; Fluo-3 fluorescence (FLIPR/Tetra); agonist 15 μM allyl isothiocyanate (AITC); 30 minute antagonist incubation
Sequence (O75762 whole entry): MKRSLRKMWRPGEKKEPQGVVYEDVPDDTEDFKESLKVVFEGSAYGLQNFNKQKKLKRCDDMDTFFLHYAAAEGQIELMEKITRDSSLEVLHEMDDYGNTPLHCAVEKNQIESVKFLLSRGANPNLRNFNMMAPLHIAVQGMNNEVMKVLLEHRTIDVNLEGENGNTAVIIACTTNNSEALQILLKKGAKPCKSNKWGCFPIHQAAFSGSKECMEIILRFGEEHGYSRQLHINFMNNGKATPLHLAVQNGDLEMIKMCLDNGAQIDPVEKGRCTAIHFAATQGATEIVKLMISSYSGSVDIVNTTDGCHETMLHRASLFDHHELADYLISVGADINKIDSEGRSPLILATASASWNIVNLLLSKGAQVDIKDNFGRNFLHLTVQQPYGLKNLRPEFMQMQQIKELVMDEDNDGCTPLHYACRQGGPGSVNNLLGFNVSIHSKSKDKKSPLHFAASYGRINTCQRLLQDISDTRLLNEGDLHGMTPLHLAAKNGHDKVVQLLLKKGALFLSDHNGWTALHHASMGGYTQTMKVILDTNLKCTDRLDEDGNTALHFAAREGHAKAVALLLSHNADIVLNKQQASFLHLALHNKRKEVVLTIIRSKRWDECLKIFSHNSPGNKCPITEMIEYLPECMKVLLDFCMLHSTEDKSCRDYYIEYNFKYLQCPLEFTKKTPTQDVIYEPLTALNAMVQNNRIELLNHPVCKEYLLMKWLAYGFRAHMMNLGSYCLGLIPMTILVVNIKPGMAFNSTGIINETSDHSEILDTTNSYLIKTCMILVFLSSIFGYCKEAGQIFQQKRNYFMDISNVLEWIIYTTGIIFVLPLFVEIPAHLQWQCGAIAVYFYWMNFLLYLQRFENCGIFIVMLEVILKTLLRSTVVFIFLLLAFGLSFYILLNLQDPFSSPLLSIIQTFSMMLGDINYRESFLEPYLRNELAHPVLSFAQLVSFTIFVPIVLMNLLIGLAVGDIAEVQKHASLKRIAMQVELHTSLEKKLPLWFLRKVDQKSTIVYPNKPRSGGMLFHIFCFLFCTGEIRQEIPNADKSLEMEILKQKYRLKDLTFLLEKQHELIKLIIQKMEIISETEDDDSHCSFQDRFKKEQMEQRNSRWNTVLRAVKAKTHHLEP
Procedure, shortened: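 Antagonist potency is the 50% reduction of the AITC (15 μM) calcium response, Hill-fitted against no-antagonist and 10 μM ruthenium red controls. Fluo-3-loaded (4 μM) CHO-TREx cells with tetracycline-inducible human TRPA1 got compound in HEPES saline pH 7.4 for 30 min, usually from 10 μM in three-fold dilutions.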

Compound	IC50 [nM]
O=C(NCc1cccc(-c2ccc(C(F)(F)F)cc2)c1)[C@@H]1[C@H]2C[C@H]2CN1S(=O)(=O)c1ccc(Cl)s1 [Example 110, 3-(5-Chlorothiophene-2-sulfonyl)-3-aza-1S,5R-bicyclo[3.1.0]hexane-2S-carboxylic acid (4′-trifluoromethylbiphenyl-3-ylmethyl)-amide]	92
C[C@H](NC(=O)[C@@H]1CCCN1S(=O)(=O)c1ccc(F)cc1)c1cccc(-c2ccc(C(F)(F)F)cc2)c1 [Example 113, (1S,2S)-1-(4-Fluoro-benzenesulfonyl)-pyrrolidine-2-carboxylic acid [1-(4′-trifluoromethyl-biphenyl-3-yl)-ethyl]-amide]	62
C[C@@H](NC(=O)[C@@H]1CCCN1S(=O)(=O)c1ccc(F)cc1)c1cccc(-c2ccc(C(F)(F)F)cc2)c1 [Example 114, (1R,2S)-1-(4-Fluoro-benzenesulfonyl)-pyrrolidine-2-carboxylic acid [1-(4′-trifluoromethyl-biphenyl-3-yl)ethyl]-amide]	2930
C[C@@H](NC(=O)[C@@H]1CCCN1S(=O)(=O)c1ccc(Cl)s1)c1cccc(-c2ccc(C(F)(F)F)cc2)c1 [Example 116, (1R,2S)-1-(5-Chloro-thiophene-2-sulfonyl)-pyrrolidine-2-carboxylic acid [1-(4′-trifluoromethylbiphenyl-3-yl)ethyl]-amide]	386
CC(C)(NC(=O)[C@@H]1CCCN1S(=O)(=O)c1ccc(Cl)s1)c1cccc(-c2ccc(C(F)(F)F)cc2)c1 [Example 118, (2S)-1-(5-Chloro-thiophene-2-sulfonyl)-pyrrolidine-2-carboxylic acid [1-methyl-1-(4′-trifluoromethyl-biphenyl-3-yl)ethyl]-amide]	5770
O=C(NCc1cccc(-c2ccc(C(F)(F)F)cc2)c1)[C@@H]1CC(F)(F)CN1S(=O)(=O)c1ccc(F)cc1 [Example 119, (2S)-4,4-Difluoro-1-(4-fluoro-benzenesulfonyl)-pyrrolidine-2-carboxylic acid (4′-trifluoromethyl-biphenyl-3-ylmethyl)-amide]	47
O=C(NCc1cccc(-c2ccc(C(F)(F)F)cc2)c1)[C@@H]1CC(F)(F)CN1S(=O)(=O)c1ccc(Cl)s1 [Example 120, (2S)-1-(5-Chloro-thiophene-2-sulfonyl)-4,4-difluoro-pyrrolidine-2-carboxylic acid (4′-trifluoromethyl-biphenyl-3-ylmethyl)-amide]	30
O=C(NCc1cccc(-c2ccc(C(F)(F)F)cc2)c1)[C@@H]1C[C@H](O)CN1S(=O)(=O)c1ccc(F)cc1 [Example 121, (2S,4S)-1-(4-Fluoro-benzenesulfonyl)-4-hydroxy-pyrrolidine-2-carboxylic acid (4′-trifluoromethyl-biphenyl-3-ylmethyl)-amide]	1530
O=C(NCc1cccc(-c2ccc(C(F)(F)F)cc2)c1)[C@@H]1C[C@@H](O)CN1S(=O)(=O)c1ccc(F)cc1 [Example 122, (2S,4R)-1-(4-Fluoro-benzenesulfonyl)-4-hydroxy-pyrrolidine-2-carboxylic acid (4′-trifluoromethyl-biphenyl-3-ylmethyl)-amide]	267
O=C(NCc1ccnc(-c2ccc(C(F)(F)F)cc2)c1)[C@@H]1CCCN1S(=O)(=O)c1ccc(F)cc1 [Example 123, 1-(4-Fluoro-benzenesulfonyl)-pyrrolidine-2S-carboxylic acid [2-(4-trifluoromethyl-phenyl)-pyridin-4-ylmethyl]-amide]	32
O=C(NCc1ccnc(-c2ccc(C(F)(F)F)cc2)c1)[C@@H]1CC(F)(F)CN1S(=O)(=O)c1ccc(F)cc1 [Example 125, 4,4-Difluoro-1-(4-fluorobenzenesulfonyl)-pyrrolidine-2S-carboxylic acid [2-(4-trifluoromethylphenyl)-pyridin-4-ylmethyl]-amide]	63
O=C(NCc1ccnc(-c2ccc(C(F)(F)F)cc2)c1)[C@@H]1CC(F)(F)CN1S(=O)(=O)c1ccc(Cl)s1 [Example 126, 1-(5-Chlorothiophene-2-sulfonyl)-4,4-difluoropyrrolidine-2S-carboxylic acid [2-(4-trifluoromethylphenyl)-pyridin-4-ylmethyl]-amide]	46
O=C(NCc1ccnc(-c2ccc(C(F)(F)F)cc2)c1)[C@@H]1C=CCN1S(=O)(=O)c1ccc(F)cc1 [Example 127, 1-(4-Fluorobenzenesulfonyl)-2,5-dihydro-1H-pyrrole-2S-carboxylic acid [2-(4-trifluoromethylphenyl)-pyridin-4-ylmethyl]-amide]	42
O=C(NCc1ccnc(-c2ccc(C(F)(F)F)cc2)c1)[C@@H]1C=CCN1S(=O)(=O)c1ccc(Cl)s1 [Example 128, 1-(5-Chlorothiophene-2-sulfonyl)-2,5-dihydro-1H-pyrrole-2S-carboxylic acid [2-(4-trifluoromethylphenyl)-pyridin-4-ylmethyl]-amide]	49
O=C(NCc1ccnc(-c2ccc(OC(F)(F)F)cc2)c1)[C@@H]1CC(F)(F)CN1S(=O)(=O)c1ccc(F)cc1 [Example 131, 4,4-Difluoro-1-(4-fluoro-benzenesulfonyl)-pyrrolidine-2S-carboxylic acid [2-(4-trifluoromethoxy-phenyl)-pyridin-4-ylmethyl]-amide]	87
O=C(NCc1ccnc(-c2ccc(OC(F)(F)F)cc2)c1)[C@@H]1CC(F)(F)CN1S(=O)(=O)c1ccc(Cl)s1 [Example 132, 1-(5-Chloro-thiophene-2-sulfonyl)-4,4-difluoro-pyrrolidine-2S-carboxylic acid [2-(4-trifluoromethoxy-phenyl)-pyridin-4-ylmethyl]-amide]	117
O=C(NCc1cc(-c2ccc(C(F)(F)F)cc2)ccn1)[C@@H]1CCCN1S(=O)(=O)c1ccc(Cl)s1 [Example 136, 1-(5-Chloro-thiophene-2-sulfonyl)-pyrrolidine-2S-carboxylic acid [4-(4-trifluoromethyl-phenyl)-pyridin-2-ylmethyl]-amide]	35
O=C(NCc1cc(-c2ccc(OC(F)(F)F)cc2)ccn1)[C@@H]1CCCN1S(=O)(=O)c1ccc(F)cc1 [Example 137, 1-(4-Fluoro-benzenesulfonyl)-pyrrolidine-2S-carboxylic acid [4-(4-trifluoromethoxy-phenyl)-pyridin-2-ylmethyl]-amide]	37

Compounds with a lower IC50, results first:

IC50 [nM]	Compound
14	O=C(NCc1cccc(-c2ccc(C(F)(F)F)cc2)c1)[C@@H]1C=CCN1S(=O)(=O)c1ccc(F)cc1 [Example 111, 1-(4-Fluorobenzenesulfonyl)-2,5-dihydro-1H-pyrrole-2S-carboxylic acid (4′-trifluoromethylbiphenyl-3-ylmethyl)-amide]
11	O=C(NCc1cccc(-c2ccc(C(F)(F)F)cc2)c1)[C@@H]1C=CCN1S(=O)(=O)c1ccc(Cl)s1 [Example 112, 1-(5-Chlorothiophene-2-sulfonyl)-2,5-dihydro-1H-pyrrole-2S-carboxylic acid (4′-trifluoromethylbiphenyl-3-ylmethyl)-amide]
15	C[C@H](NC(=O)[C@@H]1CCCN1S(=O)(=O)c1ccc(Cl)s1)c1cccc(-c2ccc(C(F)(F)F)cc2)c1 [Example 115, (1S,2S)-1-(5-Chloro-thiophene-2-sulfonyl)-pyrrolidine-2-carboxylic acid [1-(4′-trifluoromethylbiphenyl-3-yl)ethyl]-amide]
11	O=C(NCc1ccnc(-c2ccc(C(F)(F)F)cc2)c1)[C@@H]1CCCN1S(=O)(=O)c1ccc(Cl)s1 [Example 124, 1-(5-Chlorothiophene-2-sulfonyl)pyrrolidine-2S-carboxylic acid [2-(4-trifluoromethylphenyl)-pyridin-4-ylmethyl]-amide]
19	O=C(NCc1ccnc(-c2ccc(OC(F)(F)F)cc2)c1)[C@@H]1CCCN1S(=O)(=O)c1ccc(F)cc1 [Example 129, 1-(4-Fluoro-benzenesulfonyl)-pyrrolidine-2S-carboxylic acid [2-(4-trifluoromethoxy-phenyl)-pyridin-4-ylmethyl]-amide]
6	O=C(NCc1ccnc(-c2ccc(OC(F)(F)F)cc2)c1)[C@@H]1CCCN1S(=O)(=O)c1ccc(Cl)s1 [Example 130, 1-(5-Chloro-thiophene-2-sulfonyl)-pyrrolidine-2S-carboxylic acid [2-(4-trifluoromethoxy-phenyl)-pyridin-4-ylmethyl]-amide]
26	O=C(NCc1ccnc(-c2ccc(OC(F)(F)F)cc2)c1)[C@@H]1C=CCN1S(=O)(=O)c1ccc(F)cc1 [Example 133, 1-(4-Fluoro-benzenesulfonyl)-2,5-dihydro-1H-pyrrole-2S-carboxylic acid [2-(4-trifluoromethoxy-phenyl)-pyridin-4-ylmethyl]-amide]
21	O=C(NCc1ccnc(-c2ccc(OC(F)(F)F)cc2)c1)[C@@H]1C=CCN1S(=O)(=O)c1ccc(Cl)s1 [Example 134, 1-(5-Chloro-thiophene-2-sulfonyl)-2,5-dihydro-1H-pyrrole-2S-carboxylic acid [2-(4-trifluoromethoxy-phenyl)-pyridin-4-ylmethyl]-amide]
22	O=C(NCc1cc(-c2ccc(C(F)(F)F)cc2)ccn1)[C@@H]1CCCN1S(=O)(=O)c1ccc(F)cc1 [Example 135, 1-(4-Fluoro-benzenesulfonyl)-pyrrolidine-2S-carboxylic acid [4-(4-trifluoromethyl-phenyl)-pyridin-2-ylmethyl]-amide]
17	O=C(NCc1cc(-c2ccc(OC(F)(F)F)cc2)ccn1)[C@@H]1CCCN1S(=O)(=O)c1ccc(Cl)s1 [Example 138, 1-(5-Chloro-thiophene-2-sulfonyl)-pyrrolidine-2S-carboxylic acid [4-(4-trifluoromethoxy-phenyl)-pyridin-2-ylmethyl]-amide]
